Data as given in patent publication US10279046B2, “Eye drop composition for treating ocular inflammatory disease and preparation method therefor” (CATHOLIC UNIVERSITY INDUSTRY-ACADEMIC COOPERATION FOUNDATION, priority 2013, dated 2019).

Tested on: corneal damage model (alkali burn)
Test: Corneal damage model (alkali burn) with NaOH: corneal edema and inflammatory cells (hematoxylin-eosin and F4/80 staining)
Assay type: in vivo, rat (Sprague Dawley)
Settings: 0.1 mg/ml (0.01%) sulfasalazine, twice a day
Experimental: A white […] (Sprague Dawley, 300 g, male) was used as an animal, and a corneal damage model (alkali burn) due to a chemical drug using NaOH was used. A paper disk of 3 mm was dipped in a 0.1 N NaOH solution (50 ul), and the cornea was covered with the paper disk for 30 seconds to induce the cornea to be damaged. The inflammation reaction in the cornea was confirmed by performing hematoxylin eosin staining and immunostaining on the F4/80 antigen. The analysis of corneal edema was performed using a ratio of corneal epithelium and corneal stroma.
After the damage to the cornea, the solubilized sulfasalazine and the sulfasalazine-hyaluronic acid eye drop prepared in the Example 1 were administered twice a day, respectively. 0.1% hyaluronic acid was administered to the control group.
Three days after the damage to the cornea, the eyeball was removed and a paraffin block was prepared to make a tissue slice, and the hematoxylineosin staining and the immunostaining on the F4/80 antigen as a macrophage marker were performed.
The analysis on the inflammatory cells was performed with respect to the number of macrophages (F4/80 positive cells) present in the cornea.

O=C(O)c1cc(/N=N/c2ccc(S(=O)(=O)Nc3ccccn3)cc2)ccc1O [sulfasalazine solution, sulfasalazine]
number of macrophages (F4/80 positive cells) present in the cornea (after inducement of inflammation 31.5±4.9): 21.3±5.5
ratio of corneal epithelium and stroma (corneal edema) (three days after damage, normal 4.6±1, after inducement of inflammation 10±2.5): 7.1±2.1
